# In US20180258381A1, “BIO-LAMINA BIOREACTORS AND METHODS OF MAKING AND USING THE SAME” (Oregon State University, priority 2015, published 2018):
# Experiments:
# [1] = test system: M. trichosporium OB3b culture; assay: Column packed with culture immobilized in alginate beads, cPOH inhibition; type: cell-based
# Procedure: In parallel with the BLP reactor runs, the response of methane consumption and MeOH production in a column packed with M. trichosporium OB3b culture immobilized in alginate beads (0.4 mg cell protein total) was evaluated. The column was incubated under batch conditions for 18 hours with cPOH, then quickly flushed with ˜10 pore volumes of dilute growth media, before dilute media flow containing ˜200 μM CH4 was begun at a rate of 41 ml/hour (FIG. 38). Over the course of day 1, 80±10% of influent CH4 was consumed and MeOH accumulated with an efficiency (MeOH produced/CH4 consumed) of 94±21%. […] To see if MeOH production could be renewed, the column was again exposed to cPOH for 18 hours as previously described. On days 3, 4, and 7, 66±8% of influent CH4 was consumed and MeOH accumulated with an efficiency of >90%.
# MDH = assay: cPOH inhibition of MDH of culture immobilized in alginate beads; type: cell-based
# Source text: The examples described above can be used to determine optimal cPOH concentrations and exposure time to maximize MeOH production. In some examples, cPOH inhibition is rapid and irreversible. In some examples, cPOH inhibited MDH of culture immobilized in alginate beads in less than 100 seconds, and MDH inhibition was maintained after alginate beads were rinsed to remove cPOH.
# M. trichosporium OB3b = assay: Chemostat inhibition with cyclopropanol; type: cell-based
# Source text: In one embodiment, a seven-liter chemostat was used to grow a culture of M. trichosporium OB3b without copper present, therefore expressing sMMO. The temperature-controlled jacketed reactor has multiple input and output lines for gas and liquid feed, a paddle stirrer for agitation, sensors for continuous monitoring of pH and DO, and metered oxygen delivery tied to a DO concentration set-point. The reactor was inoculated with a dilute culture of M. trichosporium OB3b and operated in batch mode for approximately one month before continuous fluid flow was established. […] A second two-liter chemostat growing a culture of M. trichosporium OB3b with copper present, expressing pMMO, also was used.
# Cyclopropanol was added under batch-flow conditions with no methane being fed to the reactor to limit methanol competition for MDH and increase the effectiveness of the inhibitor. Methanol accumulated in solution for about 24 hours and then was slowly washed from the reactor (FIG. 35A). The microbial methanol production rate in the chemostat peaked within 24 hours at about 0.5 mg/(L*h) and was essentially zero after two days (FIG. 35B).
# The activity results remained stable at the above values for 5 days after inhibition with cyclopropanol present throughout. […] Complete shutdown of methane oxidation within the chemostat most likely occurred due to very successful inhibition of MDH resulting in a loss of reducing power needed for MMO operation. […] By day 8, methane utilization and oxygen uptake were restored in the chemostat and the biomass concentration increased back to pre-inhibition values. […] The chemostat inhibition experiment is being conducted again with modifications to the concentration of inhibitor and conditions of inhibition in attempt to produce conditions for continuous methanol production and to maintain higher methane oxidation rates throughout.
# In the first two embodiments an estimated 75 μg/L cyclopropanol (cPOH) was added to the chemostat. Methanol production by M. trichosporium OB3b within the chemostat lasted less than 12 hours. Following initial methanol production, cell growth ceased and cells began washing out of the reactor. Once signs of washout were observed formate was added to the chemostat to a concentration of 10 mM. […] In subsequent attempts at methanol production, smaller cyclopropanol additions were used in an attempt to inhibit the organisms enough to produce methanol without disrupting their ability to grow fast enough to avoid washout. […] In each case, a peak in cumulative methanol production was reached followed by a decline indicating the recovery of the methanol oxidation capability of the culture (FIG. 43). […] Since the cyclopropanol concentrations used in these examples were below the detection limit of the analytical method, the cyclopropanol fate in the chemostat is uncertain in some embodiments.
# Throughout each experiment specific oxygen utilization rate (SOUR) tests were conducted with samples from the chemostat as indicators of MDH and methane monooxygenase (MMO) activity (FIGS. 44A and 44B). Methanol SOURs indicate essentially immediate inhibition of MDH activity, although it took up to 1 hour to reach a minimum in activity. Significant methane inhibition is indicated in the methane SOURs and it occurs with essentially the same magnitude and time scale as the methanol SOUR results. The recovery of MDH indicated by SOUR tests correlated with the observed reduction in cumulative methanol production in the chemostat. […] A peak in DO concentration was reached first followed by a peak in pH and lastly methanol concentration. The increase in pH and DO is expected to be the result of incomplete methane oxidation and a subsequent reduction in CO2 production.
# OB3b cells = assay: Long term packed column experiment, cyclopropanol inhibition; type: cell-based, M. trichosporium OB3b
# Procedure: In some examples, OB3b cells were harvested from the chemostats described herein to make alginate beads for a long term packed column experiment. Total cell mass within the column was 300 mg with and the column void space was 6 mL. The flow rates of a methane solution (2 mg/L) were varied and the inlet and outlet concentrations were measured for a methane consumption efficiency curve shown in FIG. 45A.
# An increase in methane consumption with an increase in residence time was observed. The column was then inhibited with cyclopropanol (1/10 dilution) for 18 hours. A flow rate of 2 mL/min was used for all further testing. Methane consumption decreased from 0.21 μmol/hr to 0.15 μmol/hr after the inhibition, while 0.13 μmol/hr of methanol was produced. After 24 hours methanol production decreased to 0.06 μmol/hr and methane consumption increased to 0.24 μmol/hr. The inhibition process was repeated for 18 hours and methanol production evaluated under the same operating conditions. The maximum methanol production rates lasted about 3 hours, and then declined, while methane consumption was maintained. Overall, the column responded similarly to two inhibitions ran at constant flow for two weeks with little problem.
# [2] = test system: methanol dehydrogenase (MDH); assay: MeOH consumption of fresh sMMO expressing culture exposed to cPOH; type: cell-based, M. trichosporium OB3b; conditions: highest concentration of cPOH added with 1 mM MeOH
# Procedure: In the absence of CH4, sMMO expressing OB3b in alginate beads were incubated 18 h with cyclopropane (CP, FIG. 36A) and produced an oxidized product hypothesized to be cyclopropanol (cPOH). cPOH is more water soluble than CP, enabling removal of CP by purging the headspace with air (FIG. 36B). Work is progressing on the identification cPOH by mass spec analysis. […] Inhibition of MDH was confirmed by exposing fresh non-inhibited sMMO expressing M. trichosporium OB3b to cPOH (FIG. 36D).
# In the absence of cPOH 1 mM MeOH was consumed <10 minutes, but when cPOH was added with 1 mM MeOH there was a concentration dependent effect on the rate of MeOH consumption. At low and medium cPOH concentrations, significant amounts of MeOH were consumed before the initial time points could be taken.
# [3] = day 1, after 18 hours with cPOH
# [4] = days 3, 4, and 7, after second 18 hours cPOH exposure
# [5] = post-inhibition microbial activity sampling
# [6] = after inhibition with cyclopropanol (1/10 dilution) for 18 hours, flow 2 mL/min
structure (smiles),measurement,setting,value
"OC1CC1 [cPOH, cyclopropanol]",MeOH accumulation efficiency (MeOH produced/CH4 consumed),[1]; [3],94±21%
same,influent CH4 consumed,[1]; [3],80±10%
same,MeOH accumulation,[1]; day 2,no MeOH accumulated
same,influent CH4 consumed,[1]; day 2,67±6%
same,MeOH accumulation efficiency (MeOH produced/CH4 consumed),[1]; [4],> 90%
same,influent CH4 consumed,[1]; [4],66±8%
same,time to inhibit MDH,MDH,less than 100 seconds
same,duration of methanol production,M. trichosporium OB3b; addition of 2-8 mg/L cyclopropanol,2 to 6 h
same,effects on pH and DO concentrations within the chemostat,M. trichosporium OB3b; cPOH additions to reach 0.5 μg/L or lower,no discernable effects
same,duration of methanol production within the chemostat,M. trichosporium OB3b; estimated 75 μg/L cyclopropanol added,less than 12 hours
same,peak microbial methanol production rate in the chemostat,M. trichosporium OB3b; peaked within 24 hours after cyclopropanol addition,about 0.5 mg/(L*h)
same,reduction in batch methane oxidation rate,M. trichosporium OB3b; [5],94%
same,reduction in ethylene oxidation rate,M. trichosporium OB3b; [5],97%
same,reduction in formate-dependent oxygen uptake rate,M. trichosporium OB3b; [5],20-25%
same,reduction in methanol-dependent oxygen uptake rate,M. trichosporium OB3b; [5],95%
same,methane consumption,OB3b cells; 24 hours after inhibition,0.24 µmol/h
same,methanol production,OB3b cells; 24 hours after inhibition,0.06 µmol/h
same,methane consumption,OB3b cells; [6],0.15 µmol/h
same,methanol produced,OB3b cells; [6],0.13 µmol/h
same,effect on rate of MeOH consumption,[2],significantly slowed MeOH consumption
